Positions of bridges follow the written chain, without caps; N, C: chain ends. Residues, ends and D or L forms follow the SMILES beside them.
What was measured:
pepsin = pepsin (Sus scrofa, UniProt P00791); assay: Pepsin digestion resistance in simulated gastric fluid, RP-HPLC; format: in vitro ADME, porcine; set-up: purchased Sigma Aldrich P7012; conditions: 500 U/ml pepsin in SGF pH 1.05, 30 minutes at 37.5° C.; HPLC peak vs untreated peptide
Experimental: Peptides were first suspended in 500 ul of ddH2O to a stock concentration of 2 mg/ml. Reactions were prepared by adding 12.5 ug of peptide from the stock solution to a 10 mM solution of DTT in PBS and allowed to incubate at room temperature for 30 minutes. Other reactions were prepared with 12.5 μg peptide with or without 500 U/ml pepsin in simulated gastric fluid (SGF; pH 1.05; […] sodium chloride in 0.7% (v/v) hydrochloric acid) and were incubated for 30 minutes at 37.5° C. Some reactions were quenched with a final concentration of 100 mM Tris base and 10 mM dithiothreitol (DTT). Some reactions were performed in all of the above components, including simulated gastric fluid, pepsin, Tris, and DTT (referred to as SPTD). Reversed phase HPLC (RP-HPLC) was run on samples using an Agilent 1260 HPLC equipped with a C-18 Poroshell 120B column. Sample were analyzed by a gradient method with a mobile phase of Solvent A (water with 0.1% TFA) and Solvent B (acetonitrile with 0.1% TFA). Solvent B was ramped up from 5%-45% of the mobile phase over a period of 10 minutes. Peptides were detected at an absorbance of 214 nm and 280 nm.
(§1) Peptides were first suspended in 500 μl of ddH2O to a stock concentration of 2 mg/ml. Reactions were prepared by adding 12.5 μg of peptide from the stock solution to a 10 mM solution of DTT in PBS and allowed to incubate at room temperature for 30 minutes. Other reactions were prepared with 12.5 μg peptide and 500 U/ml trypsin in 25 mM Tris/75 mM NaCl buffer (pH 7.0) and incubated for 30 minutes at 37.5° C. These reactions were then quenched with 5 μg of soybean trypsin inhibitor (I) and, in some cases, 10 mM dithiothreitol (DTT). Reversed phase HPLC (RP-HPLC) was run on samples using an Agilent 1260 HPLC equipped with a C-18 Poroshell 120B column. Sample were analyzed by a gradient method with a mobile phase of Solvent A (water with 0.1% TFA) and Solvent B (acetonitrile with 0.1% TFA). Solvent B was ramped up from 5%-45% of the mobile phase over a period of 10 minutes. For testing pepsin digestion resistance, reactions were prepared with 12.5 μg peptide with or without 500 U/ml pepsin in simulated gastric fluid (SGF; pH 1.05; […] sodium chloride in 0.7% (v/v) hydrochloric acid) and were incubated for 30 minutes at 37.5° C. For testing temperature resistance, peptides were incubated at 70° C., 75° C., or 100° C. for one hour in 0.5 mM PBS, pelleted, and then the supernatant was analyzed by HPLC.
(§2) This example illustrates peptide stability in biological conditions including in the presence of reducing agents, proteases, oxidative conditions, acidic conditions, and simulated gastric fluids. […] Various peptides were suspended in 500 μl of ddH2O at a stock concentration of 2 mg/ml. This was then diluted in accord with the reaction conditions to prevent adverse buffering effects. Reactions were prepared with 12.5 μg peptide dissolved in solution and, in some samples, additionally suspended in a 10 mM solution of DTT, simulated gastric fluid (pH 1.05; […] sodium chloride in 0.7% (v/v) hydrochloric acid), 500 U pepsin (5000 U/ml pepsin), 50 U trypsin (500 U/ml trypsin) with 1 mg/ml inhibitor in PBS, or a combination of any of these conditions. All protease reactions were incubated for 30 min at room temperature and then quenched. Pepsin reactions were quenched by adding Tris base to a final concentration of 0.075 M. Trypsin reactions were quenched by adding excess soybean trypsin inhibitor. RP-HPLC was then run on samples using an Agilent 1260 HPLC equipped with a C-18 Poroshell 120B column. Sample were analyzed by a gradient method with a mobile phase of Solvent A (water with 0.1% TFA) and Solvent B (acetonitrile with 0.1% TFA). Solvent B was ramped up from 5%-45% of the mobile phase over a period of 10 minutes.
FIG. 20 illustrates high performance liquid chromatograph (HPLC) traces of peptides after pepsin digestion. […]

trypsin = trypsin (Sus scrofa, UniProt P00761); assay: Trypsin digestion resistance of soluble peptide, RP-HPLC; format: in vitro ADME, porcine; set-up: purchased Sigma Aldrich 6567; conditions: 500 U/ml trypsin, 30 minutes at 37.5° C.; HPLC peak vs untreated peptide
Experimental: as §1, §2
Soluble peptides were exposed to 500 U/mL porcine trypsin and analyzed by HPLC. Protease resistance was also assessed by using SDPR-displaying peptides. The SDPR vector is similar to the a surface display GFP FasL(SDGF) vector, but contains a C-terminal 6×His tag (SEQ ID NO: 180) and all basic or aromatic amino acid residues on the stalk removed. Protease resistance is then tested by incubation of cells displaying peptides with trypsin or chymotrypsin, followed by incubation in 10 mM DTT, and staining with an anti-6×His fluorophore-labeled antibody (“6×His” disclosed as SEQ ID NO: 180). If peptides are uncleaved, they retain the His tag and are stained with by the antibody. A control protease-sensitive knottin peptide (SK) was used as a positive control. Cells displaying peptides were treated with up to 40 μg/ml trypsin or chymotrypsin.
FIG. 21 illustrates high performance liquid chromatograph (HPLC) traces of peptides after trypsin digestion. […] The assay was carried out by reconstituting 1 mg porcine trypsin (Sigma Aldrich 6567) in 1 mL of 1 mM HCl. Trypsin was provided at a concentration of 10,000 u/mL and thus, 5 μl of stock solution was equivalent to using 50 U of trypsin in each reaction. Soybean trypsin inhibitor (SA T9128) was prepared at 1 mg/mL of in H2O. […]

Chain of trypsin (P00761 9-231): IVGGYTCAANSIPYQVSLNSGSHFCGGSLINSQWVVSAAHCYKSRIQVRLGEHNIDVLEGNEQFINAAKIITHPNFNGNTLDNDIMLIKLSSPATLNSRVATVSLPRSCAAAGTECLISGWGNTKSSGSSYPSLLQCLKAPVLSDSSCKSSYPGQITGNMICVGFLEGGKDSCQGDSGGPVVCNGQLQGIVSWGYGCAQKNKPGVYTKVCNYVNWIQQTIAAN
Chain of pepsin (P00791 60-385): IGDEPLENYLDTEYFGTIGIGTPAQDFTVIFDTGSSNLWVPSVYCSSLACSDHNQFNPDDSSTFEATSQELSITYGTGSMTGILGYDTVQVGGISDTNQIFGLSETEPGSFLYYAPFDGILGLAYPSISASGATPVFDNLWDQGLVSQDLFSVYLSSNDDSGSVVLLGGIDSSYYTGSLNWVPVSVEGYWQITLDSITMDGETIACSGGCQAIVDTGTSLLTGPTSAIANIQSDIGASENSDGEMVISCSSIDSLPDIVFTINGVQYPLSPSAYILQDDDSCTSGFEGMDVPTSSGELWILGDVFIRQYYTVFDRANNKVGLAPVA

Structure (SMILES)	Resistance to Pepsin (500 U/ml) (pepsin)	Resistance to Trypsin (500 U/ml) (trypsin)
CC[C@H](C)[C@@H]1NC(=O)[C@H](CCCNC(=N)N)NC(=O)[C@H]([C@@H](C)CC)NC(=O)[C@@H]2CSSC[C@@H](C(=O)N[C@@H](Cc3ccc(O)cc3)C(=O)N3CCC[C@H]3C(=O)O)NC(=O)[C@H](Cc3ccc(O)cc3)NC(=O)[C@@H]3CSSC[C@H](NC(=O)[C@H](CCC(=O)O)NC(=O)[C@H](CO)NC(=O)[C@H](CO)NC(=O)[C@H](CC(N)=O)NC(=O)[C@H](CC(N)=O)NC(=O)[C@@H](NC(=O)[C@H](CCCNC(=N)N)NC(=O)[C@H](CC(N)=O)NC(=O)[C@H](CO)NC(=O)[C@H](CC(C)C)NC(=O)[C@@H](NC(=O)[C@H](CCCCN)NC(=O)[C@H](CCC(N)=O)NC(=O)[C@H](CO)NC(=O)CN)[C@@H](C)CC)CSSC[C@H](NC(=O)[C@H](CCCCN)NC(=O)[C@H](C)NC(=O)[C@H](C)NC(=O)[C@H](CCCNC(=N)N)NC(=O)[C@H]([C@@H](C)O)NC(=O)CNC(=O)[C@H](Cc4ccccc4)NC1=O)C(=O)N[C@@H]([C@@H](C)CC)C(=O)N[C@@H](CC(N)=O)C(=O)N[C@@H](CCCNC(=N)N)C(=O)N[C@@H](CCCCN)C(=O)N3)C(=O)N[C@@H]([C@@H](C)CC)C(=O)N1CCC[C@H]1C(=O)N[C@@H](Cc1c[nH]cn1)C(=O)N2 [compound 6] (H-GSQKILSNRCNNSSECIPHCIRIFGTRAAKCINRKCYCYP-OH; disulfide 10-31, 16-36, 20-38)	High (A peptide classified as high indicates that the majority (at least 75%) of the HPLC peak of the treated peptide is still present as compared to the HPLC peak of the untreated peptide)	High (A peptide classified as high indicates that the majority (at least 75%) of the HPLC peak of the treated peptide is still present as compared to the HPLC peak of the untreated peptide)
CC[C@H](C)[C@@H]1NC(=O)[C@@H]2CSSC[C@@H]3NC(=O)[C@H](CCCCN)NC(=O)CNC(=O)[C@H](CC(N)=O)NC(=O)[C@H](CCSC)NC(=O)[C@H](CSSC[C@H](NC(=O)[C@H](CCCCN)NC(=O)[C@@H](NC(=O)[C@H](CC(=O)O)NC(=O)[C@@H](NC(=O)[C@@H]4CCCN4C(=O)[C@@H](NC(=O)CNC(=O)[C@H](CO)NC(=O)CN)C(C)C)[C@@H](C)O)C(C)C)C(=O)N[C@@H](CCCNC(=N)N)C(=O)NCC(=O)N[C@@H](CO)C(=O)N4CCC[C@H]4C(=O)N[C@@H](CCC(N)=O)C(=O)N2)NC(=O)[C@H](CCCCN)NC(=O)CNC(=O)[C@H](Cc2ccccc2)NC(=O)[C@H](CCCNC(=N)N)NC(=O)[C@H](CCSC)NC(=O)CNC(=O)[C@H](C)NC(=O)[C@H](CC(=O)O)NC(=O)[C@H](CCCCN)NC(=O)[C@H](CSSC[C@@H](C(=O)N[C@H](C(=O)N2CCC[C@H]2C(=O)N[C@@H](CCCCN)C(=O)O)[C@@H](C)O)NC(=O)[C@H](Cc2c[nH]cn2)NC3=O)NC(=O)[C@@H]2CCCN2C(=O)[C@H](CCC(N)=O)NC1=O [compound 56] (H-GSGVPTDVKCRGSPQCIQPCKDAGMRFGKCMNGKCHCTPK-OH; disulfide 10-30, 16-35, 20-37)	High (A peptide classified as high indicates that the majority (at least 75%) of the HPLC peak of the treated peptide is still present as compared to the HPLC peak of the untreated peptide)	Low (A peptide classified as low indicates that the majority (over 75%) of the HPLC peak of the treated peptide disappeared as compared to the HPLC peak of the untreated peptide)
CC[C@H](C)[C@@H]1NC(=O)[C@H](CCC(=O)O)NC(=O)[C@H](CCCNC(=N)N)NC(=O)[C@H](CCCNC(=N)N)NC(=O)[C@@H]2CSSC[C@@H](C(=O)N[C@@H](Cc3ccc(O)cc3)C(=O)N[C@@H](CCCNC(=N)N)C(=O)N[C@@H](CC(N)=O)C(=O)O)NC(=O)[C@H](C(C)C)NC(=O)[C@@H]3CSSC[C@H](NC(=O)[C@H](CO)NC(=O)CNC(=O)CNC(=O)[C@H](CCC(N)=O)NC(=O)[C@@H](NC(=O)[C@H](CCCCN)NC(=O)[C@@H](NC(=O)[C@H](CC(N)=O)NC(=O)[C@@H](NC(=O)[C@H](CCC(N)=O)NC(=O)[C@@H](NC(=O)[C@H](CCC(N)=O)NC(=O)[C@H](CO)NC(=O)CN)C(C)C)[C@@H](C)O)C(C)C)CSSC[C@H](NC(=O)[C@H](CCCCN)NC(=O)CNC(=O)[C@H](C)NC(=O)[C@H](C)NC(=O)[C@H](C(C)C)NC(=O)CNC1=O)C(=O)N[C@@H]([C@@H](C)CC)C(=O)N[C@@H](CC(N)=O)C(=O)NCC(=O)N[C@@H](CCCCN)C(=O)N3)C(=O)N[C@@H](C)C(=O)N[C@@H](CO)C(=O)N[C@@H](C(C)C)C(=O)N2 [compound 30] (H-GSQVQTNVKCQGGSCASVCRREIGVAAGKCINGKCVCYRN-OH; disulfide 10-30, 15-35, 19-37)	Moderate (A peptide classified as medium indicates that about half (between 25% and 75%) of the HPLC peak of the treated peptide disappeared as compared to the HPLC peak of the untreated peptide)	Low (A peptide classified as low indicates that the majority (over 75%) of the HPLC peak of the treated peptide disappeared as compared to the HPLC peak of the untreated peptide)
CC[C@H](C)[C@@H]1NC(=O)[C@H](CCCCN)NC(=O)[C@@H](NC(=O)[C@H](CCCCN)NC(=O)[C@@H](NC(=O)[C@H](CC(N)=O)NC(=O)[C@@H](NC(=O)[C@@H](NC(=O)[C@@H](NC(=O)CNC(=O)[C@H](CO)NC(=O)CN)C(C)C)[C@@H](C)CC)[C@@H](C)CC)C(C)C)CSSC[C@@H]2NC(=O)[C@H](CCCCN)NC(=O)CNC(=O)[C@H](Cc3ccccc3)NC(=O)[C@H](CCCNC(=N)N)NC(=O)[C@H](CCSC)NC(=O)CNC(=O)[C@H](C)NC(=O)[C@H](CCCCN)NC(=O)[C@H](CCCCN)NC(=O)[C@@H]3CSSC[C@@H](C(=O)N[C@H](C(=O)N4CCC[C@H]4C(=O)N[C@@H](CCCCN)C(=O)O)[C@@H](C)O)NC(=O)[C@H](Cc4c[nH]cn4)NC(=O)[C@H](CSSC[C@H](NC(=O)[C@H](CCC(N)=O)NC(=O)[C@H](CCCNC(=N)N)NC(=O)[C@H](CO)NC1=O)C(=O)N[C@@H](CC(C)C)C(=O)N[C@@H](CCC(=O)O)C(=O)N1CCC[C@H]1C(=O)N3)NC(=O)[C@H](CCCCN)NC(=O)CNC(=O)[C@H](CC(N)=O)NC(=O)[C@H](CCSC)NC2=O [compound 57]	High (A peptide classified as high indicates that the majority (at least 75%) of the HPLC peak of the treated peptide is still present as compared to the HPLC peak of the untreated peptide)	High (A peptide classified as high indicates that the majority (at least 75%) of the HPLC peak of the treated peptide is still present as compared to the HPLC peak of the untreated peptide)

From patent publication US20190375786A1, “STABLE PEPTIDES AND METHODS OF USE THEREOF” (Fred Hutchinson Cancer Research Center, priority 2016, published 2019)
